In ChEMBL document CHEMBL3137667, “[Drug-induced liver injury; fourteenth updated edition of the bibliographic database of liver injuries and related drugs]” (Gastroenterol Clin Biol, 2004):

Tests used:
[1] = human
[2] = human; remark: listed apart in the source
[3] = Highest frequency of moderate liver toxicity observed during clinical trials, expressed as a percentage. [column '% BIOL' in source]; conditions: human
[4] = human, serum
[5] = human; remark: listed apart in the source
[6] = human; remark: listed apart in the source
[7] = human; remark: listed apart in the source
[8] = human; remark: listed apart in the source
[9] = Highest frequency of acute liver toxicity observed during clinical trials, expressed as a percentage. [column '% AIGUE' in source]; conditions: human
[10] = human, serum; remark: listed apart in the source
[11] = human; remark: listed apart in the source
[12] = human, serum, 4383 h
[13] = human; remark: listed apart in the source
[14] = human; remark: listed apart in the source
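For Hepatotoxicity (association with vascular disease) in this document: count of indexed literature references reporting vascular liver injury in humans, e.g. peliosis hepatitis, hepatic veno-occlusive disease or Budd-Chiari syndrome.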
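For Hepatotoxicity (benign tumour) in this document: value is a count of indexed literature references citing a benign tumour confirmed by histopathology.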
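For Hepatotoxicity (choleostasis) in this document: human cholestatic liver injury, shown by histopathology or by peak ALT or AST elevation over alkaline phosphatase ratio below 2, value counts indexed literature reports.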
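For Hepatotoxicity (chronic liver disease) in this document: chronic liver injury confirmed by histopathology or persistently raised serum aminotransferase activity beyond 6 months, value given as the count of indexed literature references.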
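For Hepatotoxicity (cirrhosis) in this document: value is a count of indexed literature references reporting cirrhosis confirmed by histopathology.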
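For Hepatotoxicity (cytolytic) in this document: human cytolytic liver injury, shown by histopathology or by a ratio above 5 of peak ALT or AST elevation to alkaline phosphatase elevation, value counts indexed references.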
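For Hepatotoxicity (granulomatous hepatitis) in this document: value is a count of indexed literature references reporting granulomatous liver disease confirmed by histopathology.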
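For Hepatotoxicity (malignant tumour) in this document: malignant tumour confirmed by histopathology, value gives the count of indexed literature references reporting it.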
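For Hepatotoxicity (severe hepatitis) in this document: human clinical data: severe hepatitis, meaning potentially life-threatening liver failure or clinically observed cases, the value counts how many indexed literature references report it.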
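For Hepatotoxicity (steatosis) in this document: steatosis confirmed by histopathology, value is the count of indexed references.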

CC(C)CN(C[C@@H](O)[C@H](Cc1ccccc1)NC(=O)O[C@H]1CCOC1)S(=O)(=O)c1ccc(N)cc1
Hepatotoxicity (granulomatous hepatitis) [1]: 0
Hepatotoxicity (choleostasis) [2]: 0
Hepatotoxicity (moderate) [3]: 0%
Hepatotoxicity (acute) [4]: 3
Hepatotoxicity (association with vascular disease) [5]: 0
Hepatotoxicity (malignant tumour) [6]: 0
Hepatotoxicity (benign tumour) [7]: 0
Hepatotoxicity (cytolytic) [8]: 3
Hepatotoxicity (acute) [9]: 10.7%
Hepatotoxicity (moderate) [10]: 0
Hepatotoxicity (severe hepatitis) [11]: 0
Hepatotoxicity (chronic liver disease) [12]: 0
Hepatotoxicity (cirrhosis) [13]: 0
Hepatotoxicity (steatosis) [14]: 0

CCOC(=O)[C@H](CCc1ccccc1)N[C@@H](C)C(=O)N1[C@H](C(=O)O)C[C@@H]2CCC[C@@H]21
Hepatotoxicity (granulomatous hepatitis) [1]: 0
Hepatotoxicity (choleostasis) [2]: 0
Hepatotoxicity (moderate) [3]: 1.3%
Hepatotoxicity (acute) [4]: 1
Hepatotoxicity (association with vascular disease) [5]: 0
Hepatotoxicity (malignant tumour) [6]: 0
Hepatotoxicity (benign tumour) [7]: 0
Hepatotoxicity (cytolytic) [8]: 0
Hepatotoxicity (acute) [9]: 0%
Hepatotoxicity (moderate) [10]: 3
Hepatotoxicity (severe hepatitis) [11]: 0
Hepatotoxicity (chronic liver disease) [12]: 0
Hepatotoxicity (cirrhosis) [13]: 0
Hepatotoxicity (steatosis) [14]: 0

C[C@@H](O)[C@H]1C(=O)N2C(C(=O)O)=C(S[C@@H]3CN[C@H](C(=O)Nc4cccc(C(=O)O)c4)C3)[C@H](C)[C@H]12
Hepatotoxicity (granulomatous hepatitis) [1]: 0
Hepatotoxicity (choleostasis) [2]: 0
Hepatotoxicity (moderate) [3]: 0%
Hepatotoxicity (acute) [4]: 0
Hepatotoxicity (association with vascular disease) [5]: 0
Hepatotoxicity (malignant tumour) [6]: 0
Hepatotoxicity (benign tumour) [7]: 0
Hepatotoxicity (cytolytic) [8]: 0
Hepatotoxicity (acute) [9]: 0%
Hepatotoxicity (moderate) [10]: 4
Hepatotoxicity (severe hepatitis) [11]: 0
Hepatotoxicity (chronic liver disease) [12]: 0
Hepatotoxicity (cirrhosis) [13]: 0
Hepatotoxicity (steatosis) [14]: 0

NS(=O)(=O)OCCCCCCCOS(N)(=O)=O
Hepatotoxicity (granulomatous hepatitis) [1]: 0
Hepatotoxicity (choleostasis) [2]: 0
Hepatotoxicity (moderate) [3]: 25%
Hepatotoxicity (acute) [4]: 0
Hepatotoxicity (association with vascular disease) [5]: 0
Hepatotoxicity (malignant tumour) [6]: 0
Hepatotoxicity (benign tumour) [7]: 0
Hepatotoxicity (cytolytic) [8]: 0
Hepatotoxicity (acute) [9]: 0%
Hepatotoxicity (moderate) [10]: 2
Hepatotoxicity (severe hepatitis) [11]: 0
Hepatotoxicity (chronic liver disease) [12]: 0
Hepatotoxicity (cirrhosis) [13]: 0
Hepatotoxicity (steatosis) [14]: 0

CC[N+](C)(C/C=C/C1=C(C(=O)[O-])N2C(=O)[C@@H](NC(=O)/C(=N\OCF)c3nsc(N)n3)[C@H]2SC1)CC(N)=O (stereo not given in full)
Hepatotoxicity (granulomatous hepatitis) [1]: 0
Hepatotoxicity (choleostasis) [2]: 0
Hepatotoxicity (moderate) [3]: 37.5%
Hepatotoxicity (acute) [4]: 0
Hepatotoxicity (association with vascular disease) [5]: 0
Hepatotoxicity (malignant tumour) [6]: 0
Hepatotoxicity (benign tumour) [7]: 0
Hepatotoxicity (cytolytic) [8]: 0
Hepatotoxicity (acute) [9]: 0%
Hepatotoxicity (moderate) [10]: 51
Hepatotoxicity (severe hepatitis) [11]: 0
Hepatotoxicity (chronic liver disease) [12]: 0
Hepatotoxicity (cirrhosis) [13]: 0
Hepatotoxicity (steatosis) [14]: 0

CO/N=C(\C(=O)N[C@@H]1C(=O)N2C(C(=O)O)=C(C)CS[C@H]12)c1csc(N)n1
Hepatotoxicity (granulomatous hepatitis) [1]: 0
Hepatotoxicity (choleostasis) [2]: 0
Hepatotoxicity (moderate) [3]: 23.1%
Hepatotoxicity (acute) [4]: 0
Hepatotoxicity (association with vascular disease) [5]: 0
Hepatotoxicity (malignant tumour) [6]: 0
Hepatotoxicity (benign tumour) [7]: 0
Hepatotoxicity (cytolytic) [8]: 0
Hepatotoxicity (acute) [9]: 0%
Hepatotoxicity (moderate) [10]: 30
Hepatotoxicity (severe hepatitis) [11]: 0
Hepatotoxicity (chronic liver disease) [12]: 0
Hepatotoxicity (cirrhosis) [13]: 0
Hepatotoxicity (steatosis) [14]: 0

Cc1c(C)c2ccc(OCCCN3CCN(Cc4ccc(Cl)cc4)CC3)cc2oc1=O
Hepatotoxicity (granulomatous hepatitis) [1]: 0
Hepatotoxicity (choleostasis) [2]: 0
Hepatotoxicity (moderate) [3]: 2%
Hepatotoxicity (acute) [4]: 0
Hepatotoxicity (association with vascular disease) [5]: 0
Hepatotoxicity (malignant tumour) [6]: 0
Hepatotoxicity (benign tumour) [7]: 0
Hepatotoxicity (cytolytic) [8]: 0
Hepatotoxicity (acute) [9]: 0%
Hepatotoxicity (moderate) [10]: 1
Hepatotoxicity (severe hepatitis) [11]: 0
Hepatotoxicity (chronic liver disease) [12]: 0
Hepatotoxicity (cirrhosis) [13]: 0
Hepatotoxicity (steatosis) [14]: 0

CC(=O)OCC1=C(C(=O)O)N2C(=O)[C@@H](NC(=O)CC#N)[C@H]2SC1
Hepatotoxicity (granulomatous hepatitis) [1]: 0
Hepatotoxicity (choleostasis) [2]: 0
Hepatotoxicity (moderate) [3]: 29.6%
Hepatotoxicity (acute) [4]: 0
Hepatotoxicity (association with vascular disease) [5]: 0
Hepatotoxicity (malignant tumour) [6]: 0
Hepatotoxicity (benign tumour) [7]: 0
Hepatotoxicity (cytolytic) [8]: 0
Hepatotoxicity (acute) [9]: 0%
Hepatotoxicity (moderate) [10]: 1
Hepatotoxicity (severe hepatitis) [11]: 0
Hepatotoxicity (chronic liver disease) [12]: 0
Hepatotoxicity (cirrhosis) [13]: 0
Hepatotoxicity (steatosis) [14]: 0

CC/C=C(\C(=O)N[C@@H]1C(=O)N2C(C(=O)OCOC(=O)C(C)(C)C)=C(COC(N)=O)CS[C@H]12)c1csc(N)n1
Hepatotoxicity (granulomatous hepatitis) [1]: 0
Hepatotoxicity (choleostasis) [2]: 0
Hepatotoxicity (moderate) [3]: 33.3%
Hepatotoxicity (acute) [4]: 0
Hepatotoxicity (association with vascular disease) [5]: 0
Hepatotoxicity (malignant tumour) [6]: 0
Hepatotoxicity (benign tumour) [7]: 0
Hepatotoxicity (cytolytic) [8]: 0
Hepatotoxicity (acute) [9]: 0%
Hepatotoxicity (moderate) [10]: 53
Hepatotoxicity (severe hepatitis) [11]: 0
Hepatotoxicity (chronic liver disease) [12]: 0
Hepatotoxicity (cirrhosis) [13]: 0
Hepatotoxicity (steatosis) [14]: 0

Cc1c(N)nc([C@@H](CC(N)=O)NC[C@@H](N)C(N)=O)nc1C(=O)N[C@@H](C(=O)N[C@@H](C)[C@H](O)[C@@H](C)C(=O)N[C@H](C(=O)NCCc1nc(-c2nc(C(=O)NCCCN(C)CCCN(Cc3ccc(OCc4ccccc4)c(OCc4ccccc4)c3)Cc3ccc(OCc4ccccc4)c(OCc4ccccc4)c3)cs2)cs1)[C@@H](C)O)C(O[C@H]1O[C@@H](CO)[C@H](O)[C@@H](O)[C@H]1O[C@H]1O[C@@H](CO)[C@@H](O)[C@H](OC(N)=O)[C@@H]1O)c1c[nH]cn1 (stereo not given in full)
Hepatotoxicity (granulomatous hepatitis) [1]: 0
Hepatotoxicity (choleostasis) [2]: 0
Hepatotoxicity (moderate) [3]: 23.5%
Hepatotoxicity (acute) [4]: 0
Hepatotoxicity (association with vascular disease) [5]: 0
Hepatotoxicity (malignant tumour) [6]: 0
Hepatotoxicity (benign tumour) [7]: 0
Hepatotoxicity (cytolytic) [8]: 0
Hepatotoxicity (acute) [9]: 0%
Hepatotoxicity (moderate) [10]: 1
Hepatotoxicity (severe hepatitis) [11]: 0
Hepatotoxicity (chronic liver disease) [12]: 0
Hepatotoxicity (cirrhosis) [13]: 0
Hepatotoxicity (steatosis) [14]: 0

CC(=O)OCOC(=O)C1=C(COC(N)=O)SC2[C@H]([C@H](C)O)C(=O)N12 (stereo not given in full)
Hepatotoxicity (granulomatous hepatitis) [1]: 0
Hepatotoxicity (choleostasis) [2]: 0
Hepatotoxicity (moderate) [3]: 20%
Hepatotoxicity (acute) [4]: 0
Hepatotoxicity (association with vascular disease) [5]: 0
Hepatotoxicity (malignant tumour) [6]: 0
Hepatotoxicity (benign tumour) [7]: 0
Hepatotoxicity (cytolytic) [8]: 0
Hepatotoxicity (acute) [9]: 0%
Hepatotoxicity (moderate) [10]: 25
Hepatotoxicity (severe hepatitis) [11]: 0
Hepatotoxicity (chronic liver disease) [12]: 0
Hepatotoxicity (cirrhosis) [13]: 0
Hepatotoxicity (steatosis) [14]: 0

C[Si](C)(C)c1cccc(C(=O)C(F)(F)F)c1
Hepatotoxicity (granulomatous hepatitis) [1]: 0
Hepatotoxicity (choleostasis) [2]: 0
Hepatotoxicity (moderate) [3]: 0%
Hepatotoxicity (acute) [4]: 0
Hepatotoxicity (association with vascular disease) [5]: 0
Hepatotoxicity (malignant tumour) [6]: 0
Hepatotoxicity (benign tumour) [7]: 0
Hepatotoxicity (cytolytic) [8]: 0
Hepatotoxicity (acute) [9]: 0%
Hepatotoxicity (moderate) [10]: 2
Hepatotoxicity (severe hepatitis) [11]: 0
Hepatotoxicity (chronic liver disease) [12]: 0
Hepatotoxicity (cirrhosis) [13]: 0
Hepatotoxicity (steatosis) [14]: 0

N=C(N)NCCCCCCC(=O)NC(O)C(=O)NCCCCNCCCN (stereo not given)
Hepatotoxicity (granulomatous hepatitis) [1]: 0
Hepatotoxicity (choleostasis) [2]: 0
Hepatotoxicity (moderate) [3]: 3.6%
Hepatotoxicity (acute) [4]: 0
Hepatotoxicity (association with vascular disease) [5]: 0
Hepatotoxicity (malignant tumour) [6]: 0
Hepatotoxicity (benign tumour) [7]: 0
Hepatotoxicity (cytolytic) [8]: 0
Hepatotoxicity (acute) [9]: 0%
Hepatotoxicity (moderate) [10]: 1
Hepatotoxicity (severe hepatitis) [11]: 0
Hepatotoxicity (chronic liver disease) [12]: 0
Hepatotoxicity (cirrhosis) [13]: 0
Hepatotoxicity (steatosis) [14]: 0

CC(/C=C1\SC(=S)N(CC(=O)O)C1=O)=C\c1ccccc1
Hepatotoxicity (granulomatous hepatitis) [1]: 0
Hepatotoxicity (choleostasis) [2]: 0
Hepatotoxicity (moderate) [3]: 1%
Hepatotoxicity (acute) [4]: 1
Hepatotoxicity (association with vascular disease) [5]: 0
Hepatotoxicity (malignant tumour) [6]: 0
Hepatotoxicity (benign tumour) [7]: 0
Hepatotoxicity (cytolytic) [8]: 1
Hepatotoxicity (acute) [9]: 0%
Hepatotoxicity (moderate) [10]: 2
Hepatotoxicity (severe hepatitis) [11]: 1
Hepatotoxicity (chronic liver disease) [12]: 0
Hepatotoxicity (cirrhosis) [13]: 0
Hepatotoxicity (steatosis) [14]: 0

CO[C@H]1O[C@@H]2O[C@@]3(C)CC[C@H]4[C@H](C)CC[C@@H]([C@H]1C)[C@@]24OO3
Hepatotoxicity (granulomatous hepatitis) [1]: 0
Hepatotoxicity (choleostasis) [2]: 0
Hepatotoxicity (moderate) [3]: 17%
Hepatotoxicity (acute) [4]: 0
Hepatotoxicity (association with vascular disease) [5]: 0
Hepatotoxicity (malignant tumour) [6]: 0
Hepatotoxicity (benign tumour) [7]: 0
Hepatotoxicity (cytolytic) [8]: 0
Hepatotoxicity (acute) [9]: 0%
Hepatotoxicity (moderate) [10]: 1
Hepatotoxicity (severe hepatitis) [11]: 0
Hepatotoxicity (chronic liver disease) [12]: 0
Hepatotoxicity (cirrhosis) [13]: 0
Hepatotoxicity (steatosis) [14]: 0
